Laboratory results: ChEMBL document CHEMBL1201862, “PubChem BioAssay data set” (2004)
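Dose response: 5 concentrations. Exposure: 48 h. Format: 96-well plates. Endpoint: linear interpolation; highest concentration if not reached. Abbreviation: GI50, concentration required for 50% inhibition of growth.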 The source made the active and inactive calls. No stated cut-off is given here; in the data, active = GI50 up to about 1.1 µM and inactive = higher.

Experiments:
Experiment in all cases: NCI anticancer screen, dose series, 48 h
BT-549 = system: BT-549
CCRF-CEM = system: CCRF-CEM
HCT-15 = system: HCT-15
HOP-92 = system: HOP-92
HT-29 = system: HT-29
IGROV-1 = system: IGROV-1
KM12 = system: KM12
LOX IMVI = system: LOX IMVI
MCF7 = system: MCF7
MDA-MB-435 = system: MDA-MB-435
Malme-3M = system: Malme-3M
OVCAR-4 = system: OVCAR-4
OVCAR-5 = system: OVCAR-5
RPMI-8226 = system: RPMI-8226
RXF 393 = system: RXF 393
SNB-19 = system: SNB-19
SNB-75 = system: SNB-75
SR = system: SR
SW-620 = system: SW-620
UO-31 = system: UO-31

Structure (SMILES) | GI50 (BT-549) | GI50 (CCRF-CEM) | GI50 (HCT-15) | GI50 (HOP-92) | GI50 (HT-29) | GI50 (IGROV-1) | GI50 (KM12) | GI50 (LOX IMVI) | GI50 (MCF7) | GI50 (MDA-MB-435) | GI50 (Malme-3M) | GI50 (OVCAR-4) | GI50 (OVCAR-5) | GI50 (RPMI-8226) | GI50 (RXF 393) | GI50 (SNB-19) | GI50 (SNB-75) | GI50 (SR) | GI50 (SW-620) | GI50 (UO-31)
CCCn1cnc2c(SCc3ccc(Cl)cc3)nc(N)nc21 | 29.1 µM (inactive) | 34.2 µM (inactive) | 27.3 µM | 44.5 µM (inactive) | 19.9 µM (inactive) | 40.4 µM (inactive) | 21.5 µM (inactive) | 22 µM (inactive) | 31 µM (inactive) | 23.1 µM (inactive) | 26.9 µM (inactive) | 32.7 µM (inactive) | 28.4 µM (inactive) | 16.1 µM (inactive) | 22.3 µM (inactive) | 51.6 µM (inactive) | 21.9 µM (inactive) | 13.5 µM (inactive) | 36.3 µM (inactive) | 5.85 µM (inactive)
O=C1c2ccccc2C(=O)N1CCCSc1ccccc1 | > 100 µM (inactive) | 38.5 µM (inactive) | 92.7 µM | > 100 µM (inactive) | 31.2 µM (inactive) | 93.8 µM (inactive) | 94.4 µM (inactive) | > 100 µM (inactive) | 78.3 µM (inactive) | > 100 µM (inactive) | > 100 µM (inactive) | 71.9 µM (inactive) | > 100 µM (inactive) | 42.8 µM (inactive) | 63.7 µM (inactive) | > 100 µM (inactive) | 64.7 µM (inactive) | 31.8 µM (inactive) | > 100 µM (inactive) | 60.5 µM (inactive)
CN(C)c1ccc(/C(F)=C(F)/C(F)=C(F)/C(F)=C(\F)c2ccc(Br)cc2)cc1 | 31.8 µM (inactive) | 29.4 µM (inactive) | 13.3 µM | 47.6 µM (inactive) | 27.5 µM (inactive) | 27.6 µM (inactive) | 9.53 µM (inactive) | 19.8 µM (inactive) | 9.46 µM (inactive) | 3.1 µM (inactive) | 9.29 µM (inactive) | 23.9 µM (inactive) | 23.8 µM (inactive) | 32.7 µM (inactive) | 9.2 µM (inactive) | 23.7 µM (inactive) | 27.2 µM (inactive) | 5 µM (inactive) | 22.1 µM (inactive) | 25.1 µM (inactive)
N[C@@H]1c2c(Br)sc(Br)c2C(=O)[C@H]1Br | 19.1 µM (inactive) | 2.02 µM (inactive) | 25.1 µM | 17.5 µM (inactive) | 21.7 µM (inactive) | 20.6 µM (inactive) | 26.4 µM (inactive) | 15.7 µM (inactive) | 36.7 µM (inactive) | 23 µM (inactive) | 21.7 µM (inactive) | 27.2 µM (inactive) | > 82.4 µM (inactive) | 7.45 µM (inactive) | 22.1 µM (inactive) | 45.9 µM (inactive) | > 100 µM (inactive) | 16.1 µM (inactive) | 18.7 µM (inactive) | 27.9 µM (inactive)
COc1ccc(/C=C(/C(=O)c2ccc(Cl)cc2)N2C=CC=CC2=C(C#N)C#N)cc1OC | 7.85 µM (inactive) | 0.115 µM (active) | 2.17 µM | 3.51 µM (inactive) | 5.01 µM (inactive) | 5.09 µM (inactive) | 19.1 µM (inactive) | 3.39 µM (inactive) | 3.66 µM (inactive) | 3.89 µM (inactive) | 0.914 µM (active) | 6.58 µM (inactive) | 16.2 µM (inactive) | 2.47 µM (inactive) | 2.03 µM (inactive) | 15.1 µM (inactive) | 6.62 µM (inactive) | 2.35 µM (inactive) | 1.91 µM (inactive) | 1.5 µM (inactive)
